Target: T1, CB1-Receptor (Homo sapiens, UniProt P21554)
T1 construct: purchased Receptor Biology, Inc
Experiment: In-vitro determination of affinity to CB1 receptor (radioligand [3H]-CP55940 binding)
Conditions: compound at 10^-6 M, transfected human CB1 receptors
Procedure: The in-vitro determination of the affinity of the inventive substituted pyrazoline compounds to CB1/CB2-receptors is carried out as described in the publication of Ruth A. Ross, Heather C. Brockie et al., "Agonist-inverse agonist characterization at CB1 and CB2 cannabinoid receptors of L-759633, L759656 and AM630", British Journal of Pharmacology, 126, 665-672, (1999), whereby the transfected human CB1 and CB2 receptors of Receptor Biology, Inc. are used. The radioligand used for both receptors is [^3H]-CP55940. The respective parts of the description are hereby incorporated by reference and forms part of the present disclosure.
The affinity of the inventive substituted pyrazoline compounds to CB1/CB2 receptors was determined as described above.

T1 sequence (P21554 whole entry): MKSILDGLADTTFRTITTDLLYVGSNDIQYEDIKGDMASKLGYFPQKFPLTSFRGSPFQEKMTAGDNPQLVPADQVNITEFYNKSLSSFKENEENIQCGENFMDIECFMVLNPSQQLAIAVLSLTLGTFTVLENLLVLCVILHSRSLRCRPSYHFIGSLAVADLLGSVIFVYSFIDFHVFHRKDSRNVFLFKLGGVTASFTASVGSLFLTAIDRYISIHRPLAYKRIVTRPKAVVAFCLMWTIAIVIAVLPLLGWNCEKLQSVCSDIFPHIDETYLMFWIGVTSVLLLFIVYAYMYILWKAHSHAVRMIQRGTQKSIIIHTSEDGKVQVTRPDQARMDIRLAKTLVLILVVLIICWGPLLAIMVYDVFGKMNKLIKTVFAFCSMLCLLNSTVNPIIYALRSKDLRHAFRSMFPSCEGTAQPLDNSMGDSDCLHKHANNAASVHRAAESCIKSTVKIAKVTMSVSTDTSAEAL

Row | Compound | inhibition at 1 µM [%]
1 | CCCCCn1nc(-c2ccccc2)c(-c2ccc(Cl)cc2)n1 [Compound 10a, 4-(p-Chlorophenyl)-2-pentyl-5-phenyl-2H-[1,2,3]triazole] | 22.8
2 | CCCCCn1nnc(-c2ccccc2)c1-c1ccc(Cl)cc1 [Compound 10c, 5-(p-Chlorophenyl)-1-pentyl-4-phenyl-1H-[1,2,3]triazole] | 21.1
3 | CCCCCn1nc(-c2ccc(C)cc2)c(-c2ccc(Cl)cc2Cl)n1 [Compound 11a, 4-(2,4-Dichlorophenyl)-2-pentyl-5-p-tolyl-2H-[1,2,3]triazole] | 29.8
4 | Clc1ccc(-c2nn(Cc3ccc(Br)cc3)nc2-c2ccccc2)cc1 [Compound 13a, 2-(p-Bromobenzyl)-4-(p-chlorophenyl)-5-phenyl-2H-[1,2,3]triazole] | 45.6
5 | Clc1ccc(-c2nnn(Cc3ccccc3)c2-c2ccccc2)cc1 [Compound 14b, 1-Benzyl-4-(p-chlorophenyl)-5-phenyl-1H-[1,2,3]triazole] | 24.6
6 | Fc1cc(Br)ccc1-c1cnn(Cc2ccccc2)n1 [Compound 15a, 2-Benzyl-4-(4-bromo-2-fluorophenyl)-2H-[1,2,3]triazole] | 26.6
7 | Clc1ccc(-c2nn(C3C4CC5CC(C4)CC3C5)nc2-c2ccccc2)cc1 (stereo not shown) [Compound 19a, 2-Adamantyl-4-(p-chlorophenyl)-5-phenyl-2H-[1,2,3]triazole] | 23.1

Source: patent publication EP1921072A1, “1,2,3-Triazole derivatives as cannabinoid-receptor modulators” (Laboratorios del Dr. Esteve S.A., priority 2006, dated 2008)
